Test results from ChEMBL document CHEMBL3991601, “The target landscape of clinical kinase drugs” (Science, 2017).
Activity calls are given as the source filed them.

Columns and labels:
[1] = biological target: T1, Glycogen phosphorylase, liver form (Homo sapiens, UniProt P06737); type: subcellular, K-562, COLO 205, SK-N-BE(2) and MV-4-11, Cell lysate; conditions: read-out: Kd apparent
T1 sequence (P06737 whole entry): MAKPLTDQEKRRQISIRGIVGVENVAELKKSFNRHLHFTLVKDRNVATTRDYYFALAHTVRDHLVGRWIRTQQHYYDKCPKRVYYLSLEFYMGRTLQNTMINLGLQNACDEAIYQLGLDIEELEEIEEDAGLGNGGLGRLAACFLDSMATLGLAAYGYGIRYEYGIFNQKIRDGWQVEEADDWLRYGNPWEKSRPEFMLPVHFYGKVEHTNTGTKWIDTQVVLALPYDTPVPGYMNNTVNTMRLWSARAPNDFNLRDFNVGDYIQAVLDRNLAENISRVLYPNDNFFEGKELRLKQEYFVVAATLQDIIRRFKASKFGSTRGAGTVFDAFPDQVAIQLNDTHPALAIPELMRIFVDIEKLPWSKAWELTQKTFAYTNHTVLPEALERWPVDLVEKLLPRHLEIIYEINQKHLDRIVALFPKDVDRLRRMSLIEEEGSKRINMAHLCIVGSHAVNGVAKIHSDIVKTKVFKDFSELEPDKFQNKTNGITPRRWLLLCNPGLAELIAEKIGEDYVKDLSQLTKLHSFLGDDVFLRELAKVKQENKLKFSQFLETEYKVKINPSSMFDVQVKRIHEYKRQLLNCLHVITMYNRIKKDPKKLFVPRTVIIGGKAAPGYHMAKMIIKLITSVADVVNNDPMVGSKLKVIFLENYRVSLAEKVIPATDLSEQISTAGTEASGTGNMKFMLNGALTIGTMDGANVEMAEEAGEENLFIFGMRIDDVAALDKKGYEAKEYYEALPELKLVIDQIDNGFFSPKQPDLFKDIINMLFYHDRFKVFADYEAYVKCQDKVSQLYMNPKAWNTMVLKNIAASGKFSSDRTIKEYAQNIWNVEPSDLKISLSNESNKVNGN

[2] = biological target: Casein kinase I isoform epsilon (Homo sapiens, UniProt P49674)
[3] = biological target: T2, NUAK family SNF1-like kinase 2 (Homo sapiens, UniProt Q9H093)
T2 sequence (Q9H093 whole entry): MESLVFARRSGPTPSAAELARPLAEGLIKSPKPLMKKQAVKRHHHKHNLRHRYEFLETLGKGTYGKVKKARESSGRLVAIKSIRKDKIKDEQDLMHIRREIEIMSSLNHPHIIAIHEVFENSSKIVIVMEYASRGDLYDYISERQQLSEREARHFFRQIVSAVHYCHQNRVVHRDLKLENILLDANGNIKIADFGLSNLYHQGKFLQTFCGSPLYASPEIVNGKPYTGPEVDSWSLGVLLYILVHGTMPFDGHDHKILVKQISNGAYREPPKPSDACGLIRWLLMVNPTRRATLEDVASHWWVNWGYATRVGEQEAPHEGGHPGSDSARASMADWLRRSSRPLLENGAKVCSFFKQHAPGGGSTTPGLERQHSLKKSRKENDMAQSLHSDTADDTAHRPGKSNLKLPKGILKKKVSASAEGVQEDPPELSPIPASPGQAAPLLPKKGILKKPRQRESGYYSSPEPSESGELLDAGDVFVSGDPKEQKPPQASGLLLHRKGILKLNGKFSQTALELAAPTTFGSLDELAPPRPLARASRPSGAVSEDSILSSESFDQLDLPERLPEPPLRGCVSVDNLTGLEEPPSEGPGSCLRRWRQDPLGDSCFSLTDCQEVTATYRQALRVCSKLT

[4] = biological target: T3, Serine/threonine-protein kinase TAO1 (Homo sapiens, UniProt Q7L7X3)
T3 sequence (Q7L7X3 whole entry): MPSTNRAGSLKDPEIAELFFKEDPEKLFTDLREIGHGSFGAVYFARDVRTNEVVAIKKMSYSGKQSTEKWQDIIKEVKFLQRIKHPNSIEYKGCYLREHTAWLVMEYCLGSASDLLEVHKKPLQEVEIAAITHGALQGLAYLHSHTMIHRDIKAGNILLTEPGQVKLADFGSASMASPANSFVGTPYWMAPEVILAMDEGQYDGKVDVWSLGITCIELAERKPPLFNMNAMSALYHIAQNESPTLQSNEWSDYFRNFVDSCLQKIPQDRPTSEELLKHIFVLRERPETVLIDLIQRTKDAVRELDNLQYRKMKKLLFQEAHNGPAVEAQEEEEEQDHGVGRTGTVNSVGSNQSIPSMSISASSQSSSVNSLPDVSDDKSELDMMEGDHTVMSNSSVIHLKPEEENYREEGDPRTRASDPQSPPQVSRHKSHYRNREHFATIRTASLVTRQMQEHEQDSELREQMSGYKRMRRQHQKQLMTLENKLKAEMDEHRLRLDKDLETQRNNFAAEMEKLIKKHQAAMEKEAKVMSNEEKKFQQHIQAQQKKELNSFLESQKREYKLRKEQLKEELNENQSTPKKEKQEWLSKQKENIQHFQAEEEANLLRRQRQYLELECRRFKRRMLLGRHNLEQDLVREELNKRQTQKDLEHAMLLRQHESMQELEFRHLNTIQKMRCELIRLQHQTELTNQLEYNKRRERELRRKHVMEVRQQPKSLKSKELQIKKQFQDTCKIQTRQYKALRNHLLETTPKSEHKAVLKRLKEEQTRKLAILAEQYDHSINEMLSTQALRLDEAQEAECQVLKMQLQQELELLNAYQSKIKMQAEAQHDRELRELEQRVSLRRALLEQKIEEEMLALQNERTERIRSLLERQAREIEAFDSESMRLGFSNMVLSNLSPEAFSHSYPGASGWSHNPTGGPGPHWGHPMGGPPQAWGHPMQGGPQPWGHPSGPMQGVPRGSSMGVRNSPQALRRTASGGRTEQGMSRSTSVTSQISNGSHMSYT
Further: in the data inactive means no Kd found up to 30 µM.

Chain of Casein kinase I isoform epsilon (P49674 whole entry, canonical isoform): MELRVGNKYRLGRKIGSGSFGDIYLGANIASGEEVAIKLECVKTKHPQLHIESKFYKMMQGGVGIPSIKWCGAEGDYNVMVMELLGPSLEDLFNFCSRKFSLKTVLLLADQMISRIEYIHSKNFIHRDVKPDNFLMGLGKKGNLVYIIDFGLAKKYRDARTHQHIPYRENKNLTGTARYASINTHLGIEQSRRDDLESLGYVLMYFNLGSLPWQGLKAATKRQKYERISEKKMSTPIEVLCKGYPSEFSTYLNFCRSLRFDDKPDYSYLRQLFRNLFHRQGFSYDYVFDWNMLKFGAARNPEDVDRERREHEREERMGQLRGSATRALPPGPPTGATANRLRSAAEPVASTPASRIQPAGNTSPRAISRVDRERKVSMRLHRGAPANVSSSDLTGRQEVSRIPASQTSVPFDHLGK

SMILES | Kd [1] | Kd [2] | Kd [3] | Kd [4]
C[C@@H]1CN(Cc2ccc(F)cc2)[C@@H](C)CN1C(=O)c1cc2c(C(=O)C(=O)N(C)C)cn(C)c2cc1Cl [TALMAPIMOD] | > 30 µM (inactive) | > 30 µM (inactive) | > 30 µM (inactive) | > 30 µM (inactive)
CNC(=O)c1ccc(-c2cnc3ncc(Cc4ccc5ncccc5c4)n3n2)cc1F [CAPMATINIB] | > 30 µM (inactive) | > 30 µM (inactive) | > 30 µM (inactive) | > 30 µM (inactive)
CN1CCC(COc2cnc(-c3cccc(Cn4nc(-c5cccc(C#N)c5)ccc4=O)c3)nc2)CC1 [TEPOTINIB] | > 30 µM (inactive) | > 30 µM (inactive) | > 30 µM (inactive) | > 30 µM (inactive)
CNC(=O)c1ccc(C)c(-n2c(C)cc(OCc3ccc(F)cc3F)c(Br)c2=O)c1 [PH-797804] | > 30 µM (inactive) | > 30 µM (inactive) | > 30 µM (inactive) | > 30 µM (inactive)
CNC(=O)c1cc(Oc2ccc(NC(=O)Nc3ccc(Cl)c(C(F)(F)F)c3)c(F)c2)ccn1 [REGORAFENIB] | > 30 µM (inactive) | > 30 µM (inactive) | > 30 µM (inactive) | > 30 µM (inactive)
O=C1NC(=O)/C(=C/c2ccc3nccc(-c4ccncc4)c3c2)S1 [GSK-1059615] | > 30 µM (inactive) | > 30 µM (inactive) | > 30 µM (inactive) | 0.002 µM (active)
CCS(=O)(=O)N1CC(CC#N)(n2cc(-c3ncnc4[nH]ccc34)cn2)C1 [BARICITINIB] | > 30 µM (inactive) | > 30 µM (inactive) | > 30 µM (inactive) | > 30 µM (inactive)
COc1cc(OC)c(/C=C/S(=O)(=O)Cc2ccc(OC)c(NCC(=O)O)c2)c(OC)c1 [RIGOSERTIB] | > 30 µM (inactive) | > 30 µM (inactive) | > 30 µM (inactive) | > 30 µM (inactive)
Cc1c(F)cc(C(=O)NC2CC2)cc1-c1ccc(C(=O)NCC(C)(C)C)cn1 [LOSMAPIMOD] | > 30 µM (inactive) | > 30 µM (inactive) | > 30 µM (inactive) | > 30 µM (inactive)
C[C@@H](c1ccc2nccn2c1)n1nnc2ncc(-c3cnn(C)c3)nc21 [SAVOLITINIB] | > 30 µM (inactive) | > 30 µM (inactive) | > 30 µM (inactive) | > 30 µM (inactive)
COCCNCc1ccc(-c2cc3nccc(Oc4ccc(NC(=S)NC(=O)Cc5ccc(F)cc5)cc4F)c3s2)nc1 [GLESATINIB] | > 30 µM (inactive) | > 30 µM (inactive) | > 30 µM (inactive) | > 30 µM (inactive)
COC(=O)[C@@]1(O)C[C@H]2O[C@]1(C)n1c3ccccc3c3c4c(c5c6ccccc6n2c5c31)C(=O)NC4 [K-252A] | > 30 µM (inactive) | > 30 µM (inactive) | > 30 µM (inactive) | 18.8 µM (active)
Cc1cc2c(F)c(Oc3ncnn4cc(OC[C@@H](C)OC(=O)[C@H](C)N)c(C)c34)ccc2[nH]1 [BRIVANIB ALANINATE] | > 30 µM (inactive) | > 30 µM (inactive) | 0.003 µM | > 30 µM (inactive)

Second part, the compound after the results:

Kd [1] | Kd [2] | Kd [3] | Kd [4] | SMILES
> 30 µM (inactive) | > 30 µM (inactive) | > 30 µM (inactive) | 2.19 µM (active) | C1=C/COCc2cc(ccc2OCCN2CCCC2)Nc2nccc(n2)-c2cccc(c2)COC/1 [PACRITINIB]
> 30 µM (inactive) | > 30 µM (inactive) | > 30 µM (inactive) | > 30 µM (inactive) | COc1cc(N2CCC(N3CCN(C)CC3)CC2)ccc1Nc1ncnc(Nc2ccccc2S(=O)(=O)C(C)C)n1 [ASP-3026]
> 30 µM (inactive) | > 30 µM (inactive) | > 30 µM (inactive) | > 30 µM (inactive) | CNC(=O)CN1CCC(Oc2cc3c(Nc4cccc(Cl)c4F)ncnc3cc2OC)CC1 [SAPITINIB]
> 30 µM (inactive) | > 30 µM (inactive) | > 30 µM (inactive) | > 30 µM (inactive) | Cc1ccc(S(=O)(=O)Nc2nc3ccccc3nc2Nc2ccc3nsnc3c2)cc1
> 30 µM (inactive) | > 30 µM (inactive) | > 30 µM (inactive) | > 30 µM (inactive) | N[C@@H]1CCCN(c2c(/C=C3\SC(=O)NC3=O)cccc2-c2ccccc2)C1
> 30 µM (inactive) | > 30 µM (inactive) | > 30 µM (inactive) | > 30 µM (inactive) | Cc1ccc(NC(=O)c2ccc(CN3CC[C@H](N(C)C)C3)c(C(F)(F)F)c2)cc1Nc1nccc(-c2cncnc2)n1 [BAFETINIB]
> 30 µM (inactive) | > 30 µM (inactive) | > 30 µM (inactive) | > 30 µM (inactive) | Cn1cc(-c2ccc(F)c(C(F)(F)F)c2)nc1C1CCN(c2ncnc3[nH]ncc23)CC1 [LY-2584702]
> 30 µM (inactive) | > 30 µM (inactive) | > 30 µM (inactive) | > 30 µM (inactive) | O=C(Nc1ccc(-c2ccnc(Nc3ccc(N4CCOCC4)cc3)n2)cc1)C1CCCN1 (stereo not drawn) [XL-019]
> 30 µM (inactive) | > 30 µM (inactive) | > 30 µM (inactive) | > 30 µM (inactive) | COc1cc(CCc2cc(NC(=O)c3ccc(N4C[C@@H](C)N[C@@H](C)C4)cc3)n[nH]2)cc(OC)c1 [AZD-4547]
> 30 µM (inactive) | > 30 µM (inactive) | > 30 µM (inactive) | > 30 µM (inactive) | CN1CCC(CNc2ccc3ncc(-c4cccc(OC(F)(F)F)c4)n3n2)CC1 [SGI-1776]
> 30 µM (inactive) | > 30 µM (inactive) | > 30 µM (inactive) | > 30 µM (inactive) | CC[C@@H]1C(=O)N(C)c2cnc(Nc3ccc(C(=O)N[C@H]4CC[C@H](N5CCN(CC6CC6)CC5)CC4)cc3OC)nc2N1C(C)C [VOLASERTIB]
> 30 µM (inactive) | > 30 µM (inactive) | > 30 µM (inactive) | > 30 µM (inactive) | Cc1cc([C@@H](C)Nc2ccccc2C(=O)O)c2nc(N3CCOCC3)cc(=O)n2c1 [AZD-6482]
> 30 µM (inactive) | > 30 µM (inactive) | > 30 µM (inactive) | > 30 µM (inactive) | COc1ccc(-c2ccc3c(N4CCOC[C@@H]4C)nc(N4CCOC[C@@H]4C)nc3n2)cc1CO [AZD-8055]
> 30 µM (inactive) | > 30 µM (inactive) | > 30 µM (inactive) | > 30 µM (inactive) | CN(C)C(=O)c1cc2cnc(Nc3ccc(N4CCNCC4)cn3)nc2n1C1CCCC1 [RIBOCICLIB]
